This is an account of results in publication PMC12735872, “Development of ^18F/^11C-Labeled Pyrrolo-Pyridine/Pyrimidine LRRK2 Selective PET Radioligands” (Pharmaceuticals, 2025).

For one data set, the target named is LRRK2 wild-type (WT) (Homo sapiens, UniProt Q5S007). The data set can be described thus: LRRK2 wild-type Lanthascreen. The format is biochemical.
In the next data set the target is LRRK2 G2019S (Homo sapiens, UniProt Q5S007, G2019S). Description: LRRK2 G2019S Lanthascreen. In kind it is biochemical.
LRRK2 G2019S, sequence (Q5S007 whole entry G2019S): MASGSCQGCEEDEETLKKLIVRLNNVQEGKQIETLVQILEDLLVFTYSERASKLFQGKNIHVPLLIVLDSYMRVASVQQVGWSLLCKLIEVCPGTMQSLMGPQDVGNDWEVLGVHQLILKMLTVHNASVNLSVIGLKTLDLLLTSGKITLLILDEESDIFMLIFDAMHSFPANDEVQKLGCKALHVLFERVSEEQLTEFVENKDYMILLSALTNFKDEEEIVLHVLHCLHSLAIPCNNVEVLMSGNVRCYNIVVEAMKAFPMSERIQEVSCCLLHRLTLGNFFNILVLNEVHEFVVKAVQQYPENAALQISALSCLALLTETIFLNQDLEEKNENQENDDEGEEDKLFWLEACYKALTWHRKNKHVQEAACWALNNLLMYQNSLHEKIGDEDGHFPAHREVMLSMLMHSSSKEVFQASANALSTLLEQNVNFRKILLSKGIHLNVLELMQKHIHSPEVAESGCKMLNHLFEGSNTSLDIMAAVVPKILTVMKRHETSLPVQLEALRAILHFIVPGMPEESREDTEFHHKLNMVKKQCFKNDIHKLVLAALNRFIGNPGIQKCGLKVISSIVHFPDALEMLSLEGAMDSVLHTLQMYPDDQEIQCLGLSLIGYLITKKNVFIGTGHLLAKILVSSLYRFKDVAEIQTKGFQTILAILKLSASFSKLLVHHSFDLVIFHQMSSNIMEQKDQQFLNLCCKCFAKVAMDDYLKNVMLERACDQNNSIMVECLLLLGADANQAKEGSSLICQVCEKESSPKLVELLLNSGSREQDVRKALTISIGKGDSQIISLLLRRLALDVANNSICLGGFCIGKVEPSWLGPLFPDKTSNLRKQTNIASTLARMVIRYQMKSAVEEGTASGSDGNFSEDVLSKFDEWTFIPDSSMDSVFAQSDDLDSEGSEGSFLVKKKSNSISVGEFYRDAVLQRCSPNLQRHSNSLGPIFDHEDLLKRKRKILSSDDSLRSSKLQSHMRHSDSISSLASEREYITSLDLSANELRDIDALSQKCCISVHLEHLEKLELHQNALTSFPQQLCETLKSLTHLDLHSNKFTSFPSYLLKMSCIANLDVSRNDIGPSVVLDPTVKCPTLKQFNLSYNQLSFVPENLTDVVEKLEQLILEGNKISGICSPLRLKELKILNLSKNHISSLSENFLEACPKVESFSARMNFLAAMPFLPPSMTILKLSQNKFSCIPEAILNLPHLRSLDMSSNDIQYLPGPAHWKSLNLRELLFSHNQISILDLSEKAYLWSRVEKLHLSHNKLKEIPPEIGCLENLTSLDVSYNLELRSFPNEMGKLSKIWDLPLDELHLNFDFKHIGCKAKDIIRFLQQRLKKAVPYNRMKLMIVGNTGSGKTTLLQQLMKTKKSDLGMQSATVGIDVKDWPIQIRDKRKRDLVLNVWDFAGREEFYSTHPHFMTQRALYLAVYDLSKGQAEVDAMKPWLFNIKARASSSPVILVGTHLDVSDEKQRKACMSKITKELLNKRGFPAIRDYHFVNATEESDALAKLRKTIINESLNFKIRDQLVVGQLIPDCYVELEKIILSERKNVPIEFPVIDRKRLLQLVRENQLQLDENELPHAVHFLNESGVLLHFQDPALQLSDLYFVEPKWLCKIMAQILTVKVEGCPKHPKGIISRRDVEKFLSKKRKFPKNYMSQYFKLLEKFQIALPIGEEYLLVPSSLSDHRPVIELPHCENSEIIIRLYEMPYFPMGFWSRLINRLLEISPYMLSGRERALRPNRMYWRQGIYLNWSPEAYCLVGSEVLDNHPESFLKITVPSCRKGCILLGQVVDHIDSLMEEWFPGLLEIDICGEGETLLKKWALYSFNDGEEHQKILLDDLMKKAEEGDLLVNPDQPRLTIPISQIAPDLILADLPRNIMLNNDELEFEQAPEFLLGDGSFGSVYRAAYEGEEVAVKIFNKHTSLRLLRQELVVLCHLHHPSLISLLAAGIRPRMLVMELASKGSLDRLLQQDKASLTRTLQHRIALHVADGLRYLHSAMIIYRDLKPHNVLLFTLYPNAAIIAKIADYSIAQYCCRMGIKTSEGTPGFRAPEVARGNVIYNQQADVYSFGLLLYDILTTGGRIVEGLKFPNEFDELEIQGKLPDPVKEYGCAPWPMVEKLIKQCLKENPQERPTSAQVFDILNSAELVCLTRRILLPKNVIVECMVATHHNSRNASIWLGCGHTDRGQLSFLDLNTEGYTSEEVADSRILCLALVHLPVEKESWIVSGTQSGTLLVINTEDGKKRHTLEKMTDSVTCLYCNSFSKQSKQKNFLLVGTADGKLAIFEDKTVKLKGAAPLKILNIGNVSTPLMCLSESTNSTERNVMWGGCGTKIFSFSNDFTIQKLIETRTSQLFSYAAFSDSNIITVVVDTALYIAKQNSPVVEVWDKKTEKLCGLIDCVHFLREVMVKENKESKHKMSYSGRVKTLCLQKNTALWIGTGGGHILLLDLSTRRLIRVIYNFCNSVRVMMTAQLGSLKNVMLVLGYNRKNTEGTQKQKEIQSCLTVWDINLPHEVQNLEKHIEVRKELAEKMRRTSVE
In the next data set the test system is MDR1 (P-gp). Description: MDR1-MDCK permeability and efflux ratio. The format is in vitro ADME. Conditions: dog, assay described in ref. 17; for Papp A→B: MDCK-MDR1; for efflux ratio: MDR1-MDCK, read-out: B:A/A:B (efflux ratio). The text has this: Table 1 LRRK2 wild-type (WT) and G2019S Lanthascreen, MDR1-MDCK permeability (Papp A:B), and efflux ratio (B:A/A:B), free fractions in plasma (fp) and brain homogenate (fb) and PET Multi-Parameter Optimization (MPO) score of Compounds 1, 2, and 3. | column: Papp A:B ^2 (MDR1-MDCK) (cm/s × 10^−6); B:A/A:B ^2

The nature of data set [1]: Free fraction in plasma (fp). In kind it is in vitro ADME. Conditions: method ref. 18. The text has this: Table 1 LRRK2 wild-type (WT) and G2019S Lanthascreen, MDR1-MDCK permeability (Papp A:B), and efflux ratio (B:A/A:B), free fractions in plasma (fp) and brain homogenate (fb) and PET Multi-Parameter Optimization (MPO) score of Compounds 1, 2, and 3. | column: fp ^3 (%)

Data set [2] is described as follows: Free fraction in brain homogenate (fb). The format is in vitro ADME. Conditions: method ref. 18. The source says: Table 1 LRRK2 wild-type (WT) and G2019S Lanthascreen, MDR1-MDCK permeability (Papp A:B), and efflux ratio (B:A/A:B), free fractions in plasma (fp) and brain homogenate (fb) and PET Multi-Parameter Optimization (MPO) score of Compounds 1, 2, and 3. | column: fb ^3 (%)

For data set [3], the system named is LRRK2. Description: In vitro autoradiography, NHP brain slices. As to conditions: cold compound 10 µM. The format is binding. Here is the method: Whole brain hemispheres were sectioned into horizontal slices with a thickness of 100 µm using a Leica cryomacrocut system. The autoradiographic procedures followed the same protocols established in previous studies conducted in our laboratory. The whole-hemisphere sections of 100 micron thickness were incubated for 90 min at room temperature with their corresponding radiotracer (4 MBq/200 mL) in TRIS buffer (pH 7.4) containing sodium chloride (120 mM), potassium chloride (5 mM), calcium chloride (2 mM), and albumin (0.1% w/v). After incubation, sections were washed three times in the same buffer at room temperature for five minutes each, briefly dipped in ice-cold distilled water, dried, and then placed in the phosphor imaging plates. Binding density standards were prepared by serial dilution of the radioligand stock solution in the assay buffer. Readings were taken with the Fujifilm BAS-5000 (Fujifilm, Tokyo, Japan), while quantitative analysis was conducted with the Multi Gauge 3.2 image analysis software (Fujifilm, Tokyo, Japan). For blocking experiments, adjacent brain sections were co-incubated with LuAF66583 (0.1 µM or 10 µM). […] The thickness differed from human tissue (20 µm).

The target in data set [4] is T1, LRRK2 (Homo sapiens, UniProt Q5S007).
T1 construct: Human brains without pathological findings were acquired from the National Institute of Forensic Medicine; from tissue; host or cells: human post-mortem control brain, whole-hemisphere sections (100 µm)
T1 sequence (Q5S007 whole entry): as the sequence (Q5S007 whole entry G2019S) above, with S2019G counted along it
Description: In vitro autoradiography, human whole-hemisphere brain slices. The format is binding. Conditions: human brain slices; cold compound 10 µM. On the procedure:
Human brains without pathological findings were acquired from the National Institute of Forensic Medicine at Karolinska Institutet in Stockholm, Sweden. These brains were obtained during forensic autopsies (designated as control brain) and were processed in a manner like previously described methods. […] The brain was removed, and its tissues were kept in −85 °C until the sectioning process. The whole brain hemispheric slices were subsequently maintained at −25 °C until the commencement of autoradiography procedures. […] The sectioning of the brain and the autoradiography experiments were performed at the Psychiatry section, Department of Neuroscience, Karolinska Institutet, Sweden.
Whole brain hemispheres were sectioned into horizontal slices with a thickness of 100 µm using a Leica cryomacrocut system. The autoradiographic procedures followed the same protocols established in previous studies conducted in our laboratory. The whole-hemisphere sections of 100 micron thickness were incubated for 90 min at room temperature with their corresponding radiotracer (4 MBq/200 mL) in TRIS buffer (pH 7.4) containing sodium chloride (120 mM), potassium chloride (5 mM), calcium chloride (2 mM), and albumin (0.1% w/v). After incubation, sections were washed three times in the same buffer at room temperature for five minutes each, briefly dipped in ice-cold distilled water, dried, and then placed in the phosphor imaging plates. Binding density standards were prepared by serial dilution of the radioligand stock solution in the assay buffer. Readings were taken with the Fujifilm BAS-5000 (Fujifilm, Tokyo, Japan), while quantitative analysis was conducted with the Multi Gauge 3.2 image analysis software (Fujifilm, Tokyo, Japan). For blocking experiments, adjacent brain sections were co-incubated with LuAF66583 (0.1 µM or 10 µM).

Where two headings read alike, the source gives them in different places.

LRRK2 wild-type (WT), sequence (Q5S007 whole entry): as the sequence (Q5S007 whole entry G2019S) above, with S2019G counted along it

As for `C[C@@H]1C[C@@H](F)CN1c1c(C#N)c2c(N)nccc2n1C` [Compound 1, 4-Amino-2-((2R,4R)-4-fluoro-2-methylpyrrolidin-1-yl)-1-methyl-1H-pyrrolo[3,2-c]pyridine-3-carbonitrile], the Ki was found to be 0.7 nM on LRRK2 wild-type (WT) (assay described in ref. 16, read-out: LRRK2 Lanthascreen WT cKi) and 1 nM on LRRK2 G2019S (assay described in ref. 16, read-out: LRRK2 Lanthascreen G2019S cKi). Further, the Papp A→B with MDR1 (P-gp) is 31 ×10⁻⁶ cm/s. For the same molecule, the efflux ratio in the data set on MDR1 (P-gp) stood at 0.66. In addition, the values for the fraction unbound in data set [1] and in data set [2] were 0.38 and 0.13, respectively. Besides, the “Blocking of [^18F]1 binding (ARG)” value in the data set on LRRK2 [3] and on LRRK2 [4] was “effectively blocked” in each case.

Take `C[C@@H]1CCCN1c1c(C#N)c2c(N)nc(Nc3cnn(C)c3)nc2n1C` [Compound 3, (R)-4-amino-7-methyl-2-((1-methyl-1H-pyrazol-4-yl)amino)-6-(2-methylpyrrolidin-1-yl)-7H-pyrrolo[2,3-d]pyrimidine-5-carbonitrile]: the Ki on LRRK2 wild-type (WT) turned out to be 0.14 nM; at LRRK2 G2019S, 0.28 nM. Besides, the Papp A→B with MDR1 (P-gp) was determined as 17 ×10⁻⁶ cm/s. Besides, the efflux ratio in the data set with MDR1 (P-gp) was 0.8. The unbound share (fraction unbound) in data set [1] was determined as 0.04; in data set [2], 0.012. Moreover, the “Blocking of [^18F]1 binding (ARG)” value in the data set on LRRK2 [3] and at LRRK2 [4] was “effectively blocked” throughout.
